Source: patent US6677311B1, “Inducible HSV-TK in transformed cell populations” (priority 1988, dated 2004)

Tests used:
[1] = system: rat fibroblast cell line #3B; experiment: Cell growth assay, HSV1-TK expressing 3B cells; format: cell-based
Source text: To examine the effect on cellular DNA replication, the rat fibroblast cell line #3B (see Pfahl, et al. Proc. UCLA Symp. Conf. Steroid Hormone Action, ed. Ringold, G. (Liss, N.Y.), Vol. 75:161-168 (1987) that stably expresses the glucocorticoid inducible MTV-HSV1-TK gene, was used. Addition of Dex to these cells leads to a 50-fold increase in HSV1-TK activity. The effect of the drugs on the 3B cells was compared to the one obtained on the control rat 208 fibroblast cell line (see Quade, K. (1979) in Virology, 98:461-465 (1979), a cell line not expressing HSV1-TK). The experiments were performed by seeding cells at low density (3×10^4) in Dulbecco media containing 10% FCS. Cells were incubated with varying concentrations of drug placed in the media 12 hours after the cells were plated either in the presence or in the absence of 10^−7 M Dexamethasone. After a total period of 72 hours, viable cells were recognized by Trypan blue exclusion. Cell numbers were determined with a Neubauer Hemocytometer. The efficacy of the drugs was monitored as reduction in the total number of viable cells.

spleen and thymus = experiment: FIAU cell killing in KHTK transgenic mice (miniosmotic pump); format: in vivo, mouse
Protocol: Furthermore, to test if the protein was biologically active, a TK assay [See Fyfe et al., J. Biol. Chem. 253:8721-8727 (1978)] was performed on extracts from these tissues. […] To evaluate the efficacy of the system in vivo, an experiment was performed in which transgenic and non-transgenic littermates were implanted subcutaneously with a miniosmotic pump (model 2002, Alzet, Alza Corp., Palo Alto, Calif.). Transgenic and nontransgenic littermates were then treated for one week with a 50 mg/ml solution of FIAU in PBS released by the Miniosmotic pump. FIAU was chosen because it was most efficient in blocking the DNA replication in vitro. The dose was calculated to obtain serum levels of the drug shown to be effective in cell culture. The animals were sacrificed one week after the pump was implanted. […] In the transgenic mouse, most organs were also normal with the dramatic exception of the spleen and thymus which were visually atrophied.

COS cells = experiment: Inhibition of plasmid replication in cotransfected COS cells expressing HSV1-TK; format: cell-based, monkey; conditions: 10 μM drug; for reduction of total plasmid copy number (pSV2CAT) relative to no drug treatment: COS cells cotransfected with pSV2CAT, pApS1 (MTV-HSV1-TK), pRShGR, Dex 10^-7 M, 36 h; for decrease of replication of PRShGR': same cotransfection, similar to pSV2CAT
Protocol: The possibility was tested that HSVI-TK expressed from a transfected plasmid could metabolize anti-herpetic nucleosides to substrates capable of being metabolized by a cellular DNA polymerase. In principle, the incorporation of these activated drugs should lead to a net decrease in cellular DNA replication. Accordingly, a plasmid capable of replicating in COS cells [monkey kidney cells which express T antigen (Tag); See Gluzman, Y. in Cell, 23:175-182 (1981)], namely pSV2CAT (See FIG. 1a; a plasmid that contains the Simian virus 40 promoter region linked to the chloramphenicol acetyltransferase (CAT) gene; See Gorman, et al. in Mol. Cell. Biol., 2:1044-1051(1982)) was cotransfected with a plasmid, pApSI (a plasmid that contains the mouse mammary tumor virus long terminal repeat (MTV-LTR) linked to the HSV1-TK gene; See Chandler, et al., in Cell, 33:489-499 (1983)), expressing HSV1-TK gene under the control of the glucocorticoid inducible promoter of the mouse mammary tumor virus (MTV) (see FIG. 1a). Here, the expression of TK is dependent on both the presence of glucocorticoids, such as the synthetic dexamethasone (Dex), and the glucocorticoid receptor which activate the MTV-promoter in the presence of Dex. For this reason, a human glucocorticoid receptor (hGR) expression vector, PRShGR' (a human glucocorticoid receptor (hGR) expression vector that contains the Rous sarcoma virus long terminal repeat (RSV-LTR) linked to the human glucocorticoid receptor; See Giguere, et al., in Cell, 46:645-652 (1986)), was also cotransfected to insure high levels of this transacting factor. PRShGR' itself contains the origin of replication of SV40 and therefore is able to replicate in COS cells.
Semi-confluent COS cells were cotransfected by the calcium phosphate technique (See Graham, F. L. and van der Eb, A. J., Virology, 52:456-467 (1973) with 1 μg of pSV2CAT, 5 μg of pApS1 and 1 μg of pRShGR' and analyzed 36 hours later. The effect of ACV or FIAU on the replication of pSV2CAT was monitored by the reduction in the number of molecules of this plasmid as compared to a similar experiment conducted in the absence of these drugs. The cells were grown in Dulbecco media containing 5% FCS. Before each experiment, Dex, at a concentration of 10^−7 M, was added. Where the nucleoside analogs were tested, either ACV or FIAU was added to the media at a concentration of 10 μM. When the cells were trypsinized and washed after 24 hours, and then replaced, the new media contained the same concentration of Dex and ACV or FIAU as before. 12 hours later the cells were harvested and plasmid DNA was recovered. The plasmids were recovered from the transfected cells by the method of Hirt (see J. Mol. Biol., 26:365-269 (1967)). […]

[2] = transgenic mouse, 50 mg/ml FIAU in PBS by miniosmotic pump, one week

| Structure (SMILES) | reduction of viability ([1]; 0.1 μM FIAU) | cell death ([1]; 3.0 μM FIAU, in the absence of severe non-specific toxicity) [%] | autopsy findings in control mouse (spleen and thymus; nontransgenic littermate, one week of FIAU treatment) | reduction of the cell number in the spleen (spleen and thymus; [2]) [%] | reduction of the cell number in the thymus (spleen and thymus; [2]) [%] | reduction of total plasmid copy number (pSV2CAT) relative to no drug treatment (COS cells) [%] | decrease of replication of PRShGR' (COS cells) [%] | cell death ([1]; 3.0 μM ACV, 3B cells in the presence of Dex, 72 h) [%] | cell death ([1]; 10 μM ACV, 3B cells in the presence of Dex) [%] | toxicity independent of the presence or absence of Dex ([1]; 100 μM ACV) | cell death ([1]; 100 μM ACV, 3B cells in the presence of Dex) [%] | effect on number of viable cells ([1]; 0.1 to 1.0 μM, 72 h) |
| --- | --- | --- | --- | --- | --- | --- | --- | --- | --- | --- | --- | --- |
| O=c1[nH]c(=O)n([C@H]2O[C@H](CO)[C@@H](O)[C@@H]2F)cc1I [FIAU, 1-(2-deoxy-2-fluoro-a-D-arabinofuranosil)-5-iodouracil] | more than 60% | 98 | no apparent toxic effects | 57 | 83 | 70 | 70 |  |  |  |  |  |
| Nc1nc2c(ncn2COCCO)c(=O)[nH]1 [ACV, 9-[(2-hydroxyethoxy)methyl]guanine] |  |  |  |  |  | 40 | 40 | 20 | 60 | non-specific toxicity | 98 | no effect |
